{"source": "patent US20250262254A1", "about": "“THERAPEUTIC COMPOSITIONS AND METHODS OF USING SEROTONIN MODULATING MICROBIOME-BASED INTERVENTIONS TO TREAT SEROTONIN-RELATED DISEASES OR DISORDERS” (HOLOBIOME, INC, priority 2019, published 2025)", "origin": "cited, not measured here", "test_system": "mouse model", "conditions": "microbiota-derived tryptamine", "data": [{"smiles": "NCCc1c[nH]c2ccccc12", "note": "[tryptamine]", "values": [{"measurement": "GI transit", "result": "accelerate GI transit"}]}]}
